Reference: patent US20240024317A1, “CANCER TREATMENT USING BOSENTAN IN COMBINATION WITH A CHECKPOINT INHIBITOR” (Materia Therapeutics Inc., priority 2020, published 2024)

What was measured:
Format in all cases: in vivo, mice
4T1 tumors = experiment: Ultrasound shear wave elastography of tissue stiffness, bosentan dose response; conditions: 1 mg/kg daily bosentan i.p.; 4T1 breast tumors
Protocol: (§1) Mice bearing syngeneic, orthotopic triple negative breast cancer (TNBC) were treated with a range of sub-therapeutic doses of bosentan, from 0.2 mg/kg to 10 mg/kg of body weight. Orthotopic models for murine mammary tumors were generated by implantation of 5×10^4 4T1 or E0771 cancer cells in 40 μl of serum-free medium into the third mammary fat pad of 6-8-week-old BALB/c and C57BL/6 female mice, respectively. 4T1 (ATCC® CRL-2539TH) and E0771 (94A001, CH3 BioSystems) mouse breast adenocarcinoma cell lines were purchased form ATCC and CH3 BioSystems, respectively. The cells were maintained at 37° C./5% CO2 in Roswell Park Memorial Institute medium (RPMI-1640, LM-R1637, Biosera) supplemented with 10% fetal bovine serum (FBS, FB-1001H, biosera) and 1% antibiotics (A5955, Sigma). Bosentan (bosentan Hydrate (S3051, Selleckchem) was dissolved in ddH2O containing 2% DMSO (GK2245, Glentham Life Science), 30% PEG300 (S6704, Selleckchem) and 2% Tween 80 (S6702, Selleckchem)) 1 mg/kg, 5 mg/kg, 10 mg/kg or equal volume of diluent (control group) was administered by intraperitoneal injection (i.p.) once a day for 10 days, starting from once the tumor volumes reached an average size of 100 mm^3. Tumors were excised when they reached an average size of 500 mm^3. Tissue stiffness was then measured non-invasively and longitudinally using ultrasound elastography. […]

E0771 tumors = experiment: as above; conditions: 1 mg/kg daily bosentan i.p.; E0771 breast tumors
Protocol: as §1

[1] = Mouse body weight under bosentan monotherapy; conditions: bosentan monotherapy at any dose
Protocol: as §1

COc1ccccc1Oc1c(NS(=O)(=O)c2ccc(C(C)(C)C)cc2)nc(-c2ncccn2)nc1OCCO [bosentan, 4-tert-butyl-N-[6-(2-hydroxy-ethoxy)-5-(2-methoxy-phenoxy)-2-(pyrimidin-2-yl)pyrimidin-4-yl] benzenesulfonamide]
tissue stiffness (ultrasound elastography) (4T1 tumors): reduced tissue stiffness
tissue stiffness (ultrasound elastography) (E0771 tumors): reduced tissue stiffness
mouse body weight [1]: did not affect
